# Experimental data from patent publication US12077503B2, “Substituted cyclic amides and their use as herbicides” (FMC CORPORATION, priority 2015, dated 2024).
# Columns and labels:
# Type in all cases: in vivo
# Kochia (Kochia scoparia) [1] = test: Test A preemergence; conditions: Bassia scoparia, pre-emergence, 240 h, 0 to 100 scale where 0 is no effect and 100 is complete control, read-out: Kochia plant response rating
# How it was run: (§1)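 Treatment is preemergence as a directed soil spray after planting, or postemergence at the one- to two-leaf stage, with test chemical in a non-phytotoxic solvent mixture plus surfactant. Plants stay in the greenhouse about 10 d before visual injury scoring on a 0 to 100 scale versus untreated controls.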
# [2] = tested on: barnyardgrass (Echinochloa crus-galli); test: Test A preemergence; conditions: Echinochloa crus-galli, pre-emergence, 240 h, 0 to 100 scale where 0 is no effect and 100 is complete control, read-out: Barnyardgrass plant response rating
# How it was run: as §1
# [3] = tested on: giant foxtail (Setaria faberii); test: Test A preemergence; conditions: Setaria faberi, pre-emergence, 240 h, 0 to 100 scale where 0 is no effect and 100 is complete control, read-out: Foxtail, Giant plant response rating
# How it was run: as §1
# [4] = tested on: pigweed (Amaranthus retroflexus); test: Test A preemergence; conditions: Amaranthus retroflexus, pre-emergence, 240 h, 0 to 100 scale where 0 is no effect and 100 is complete control, read-out: Pigweed plant response rating
# [5] = tested on: ragweed (common ragweed, Ambrosia elatior); test: Test A preemergence; conditions: Ambrosia artemisiifolia, pre-emergence, 240 h, 0 to 100 scale where 0 is no effect and 100 is complete control, read-out: Ragweed plant response rating
# How it was run: as §1
# [6] = tested on: ryegrass, Italian (Italian ryegrass, Lolium multiflorum); test: Test A preemergence; conditions: Lolium multiflorum, pre-emergence, 240 h, 0 to 100 scale where 0 is no effect and 100 is complete control, read-out: Ryegrass, Italian plant response rating
# How it was run: as §1
# [7] = tested on: Galium (catchweed bedstraw, Galium aparine); test: Test A postemergence; conditions: Galium, post-emergence, 240 h
# How it was run: as §1
# Kochia (Kochia scoparia) [8] = test: Test A postemergence; conditions: Bassia scoparia, post-emergence, 240 h
# How it was run: as §1
# [9] = tested on: barnyardgrass (Echinochloa crus-galli); test: Test A postemergence; conditions: Echinochloa crus-galli, post-emergence, 240 h
# How it was run: as §1
# [10] = tested on: blackgrass (Alopecurus myosuroides); test: Test A postemergence; conditions: Alopecurus myosuroides, post-emergence, 240 h
# How it was run: as §1
# corn (Zea mays) = test: Test A postemergence; conditions: Zea mays, post-emergence, 240 h
# How it was run: as §1
# [11] = tested on: giant foxtail (Setaria faberii); test: Test A postemergence; conditions: Setaria faberi, post-emergence, 240 h
# How it was run: as §1
# [12] = tested on: pigweed (Amaranthus retroflexus); test: Test A postemergence; conditions: Amaranthus retroflexus, post-emergence, 240 h
# How it was run: as §1
# [13] = tested on: ragweed (common ragweed, Ambrosia elatior); test: Test A postemergence; conditions: Ambrosia artemisiifolia, post-emergence, 240 h
# How it was run: as §1
# [14] = tested on: ryegrass, Italian (Italian ryegrass, Lolium multiflorum); test: Test A postemergence; conditions: Lolium multiflorum, post-emergence, 240 h
# How it was run: as §1
# [15] = tested on: wheat (Triticum aestivum); test: Test A postemergence; conditions: Triticum aestivum, post-emergence, 240 h
# How it was run: as §1
# [16] = tested on: barnyardgrass (Echinochloa crus-galli); test: Test B flooded paddy test; conditions: Echinochloa crus-galli, 250 g ai/ha, Flood; 0 to 100 scale where 0 is no effect and 100 is complete control; read-out: Barnyardgrass plant response rating
# How it was run: (§2)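 Response scored visually against untreated controls, 0 = no effect and 100 = complete control, 13–15 d after treatment in the greenhouse. Compounds added to paddy water held 3 cm above soil surface. Treatment given at 2-leaf stage.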
# [17] = tested on: ducksalad (Heteranthera limosa); test: Test B flooded paddy test; conditions: Heteranthera limosa, 250 g ai/ha, Flood; 0 to 100 scale where 0 is no effect and 100 is complete control; read-out: Ducksalad plant response rating
# How it was run: as §2
# rice (Oryra sativa) = test: Test B flooded paddy test; conditions: Oryza sativa, 250 g ai/ha, Flood; 0 to 100 scale where 0 is no effect and 100 is complete control; read-out: Rice plant response rating
# How it was run: as §2
# [18] = tested on: sedge, umbrella (small-flower umbrella sedge, Cyperus difformis); test: Test B flooded paddy test; conditions: Cyperus difformis, 250 g ai/ha, Flood; 0 to 100 scale where 0 is no effect and 100 is complete control; read-out: Sedge, Umbrella plant response rating
# How it was run: as §2
# [19] = 125 g ai/ha, preemergence, approx. 10 d
smiles,measurement,setting,value
CN1C[C@H](c2cc(C(F)F)cs2)[C@@H](C(=O)Nc2ccccc2S(C)(=O)=O)C1=O [Compound 1084],pest or weed control at 31 g/ha,"Kochia (Kochia scoparia) [1]; 31 g ai/ha, Preemergence",0%
same,pest or weed control at 125 g/ha,Kochia (Kochia scoparia) [1]; [19],20%
same,pest or weed control at 31 g/ha,"[2]; 31 g ai/ha, Preemergence",0%
same,pest or weed control at 125 g/ha,[2]; [19],70%
same,pest or weed control at 31 g/ha,"[3]; 31 g ai/ha, Preemergence",30%
same,pest or weed control at 125 g/ha,[3]; [19],100%
same,pest or weed control at 31 g/ha,"[4]; 31 g ai/ha, Preemergence",0%
same,pest or weed control at 125 g/ha,[4]; [19],0%
same,pest or weed control at 31 g/ha,"[5]; 31 g ai/ha, Preemergence",0%
same,pest or weed control at 125 g/ha,[5]; [19],10%
same,pest or weed control at 31 g/ha,"[6]; 31 g ai/ha, Preemergence",0%
same,pest or weed control at 125 g/ha,[6]; [19],10%
same,pest or weed control at 125 g/ha,"[7]; 125 g ai/ha, postemergence, visual injury on 0 to 100 scale (0 no effect, 100 complete control), approx. 10 d, read-out: Galium plant response rating",0%
same,pest or weed control at 31 g/ha,"[7]; Postemergence, 31 g ai/ha, visual injury after approx. 10 d, 0 to 100 scale, 0 no effect, 100 complete control, read-out: Plant response rating, Galium",0%
same,pest or weed control at 125 g/ha,"Kochia (Kochia scoparia) [8]; 125 g ai/ha, postemergence, visual injury on 0 to 100 scale (0 no effect, 100 complete control), approx. 10 d, read-out: Kochia plant response rating",30%
same,pest or weed control at 31 g/ha,"Kochia (Kochia scoparia) [8]; Postemergence, 31 g ai/ha, visual injury after approx. 10 d, 0 to 100 scale, 0 no effect, 100 complete control, read-out: Plant response rating, Kochia",0%
same,pest or weed control at 125 g/ha,"[9]; 125 g ai/ha, postemergence, visual injury on 0 to 100 scale (0 no effect, 100 complete control), approx. 10 d, read-out: Barnyardgrass plant response rating",60%
same,pest or weed control at 31 g/ha,"[9]; Postemergence, 31 g ai/ha, visual injury after approx. 10 d, 0 to 100 scale, 0 no effect, 100 complete control, read-out: Plant response rating, Barnyardgrass",10%
same,pest or weed control at 125 g/ha,"[10]; 125 g ai/ha, postemergence, visual injury on 0 to 100 scale (0 no effect, 100 complete control), approx. 10 d, read-out: Blackgrass plant response rating",20%
same,pest or weed control at 31 g/ha,"[10]; Postemergence, 31 g ai/ha, visual injury after approx. 10 d, 0 to 100 scale, 0 no effect, 100 complete control, read-out: Plant response rating, Blackgrass",0%
same,plant injury at 125 g/ha,"corn (Zea mays); 125 g ai/ha, postemergence, visual injury on 0 to 100 scale (0 no effect, 100 complete control), approx. 10 d, read-out: Corn plant response rating",0%
same,"Corn plant response rating (crop injury, 0 = no effect, 100 = complete kill) at 31 g/ha","corn (Zea mays); Postemergence, 31 g ai/ha, visual injury after approx. 10 d, 0 to 100 scale, 0 no effect, 100 complete control",0%
same,pest or weed control at 125 g/ha,"[11]; 125 g ai/ha, postemergence, visual injury on 0 to 100 scale (0 no effect, 100 complete control), approx. 10 d, read-out: Foxtail, Giant plant response rating",50%
same,pest or weed control at 31 g/ha,"[11]; Postemergence, 31 g ai/ha, visual injury after approx. 10 d, 0 to 100 scale, 0 no effect, 100 complete control, read-out: Plant response rating, Foxtail, Giant",0%
same,pest or weed control at 125 g/ha,"[12]; 125 g ai/ha, postemergence, visual injury on 0 to 100 scale (0 no effect, 100 complete control), approx. 10 d, read-out: Pigweed plant response rating",0%
same,pest or weed control at 31 g/ha,"[12]; Postemergence, 31 g ai/ha, visual injury after approx. 10 d, 0 to 100 scale, 0 no effect, 100 complete control, read-out: Plant response rating, Pigweed",0%
same,pest or weed control at 125 g/ha,"[13]; 125 g ai/ha, postemergence, visual injury on 0 to 100 scale (0 no effect, 100 complete control), approx. 10 d, read-out: Ragweed plant response rating",0%
same,pest or weed control at 31 g/ha,"[13]; Postemergence, 31 g ai/ha, visual injury after approx. 10 d, 0 to 100 scale, 0 no effect, 100 complete control, read-out: Plant response rating, Ragweed",0%
same,pest or weed control at 125 g/ha,"[14]; 125 g ai/ha, postemergence, visual injury on 0 to 100 scale (0 no effect, 100 complete control), approx. 10 d, read-out: Ryegrass, Italian plant response rating",0%
same,pest or weed control at 31 g/ha,"[14]; Postemergence, 31 g ai/ha, visual injury after approx. 10 d, 0 to 100 scale, 0 no effect, 100 complete control, read-out: Plant response rating, Ryegrass, Italian",0%
same,plant injury at 125 g/ha,"[15]; 125 g ai/ha, postemergence, visual injury on 0 to 100 scale (0 no effect, 100 complete control), approx. 10 d, read-out: Wheat plant response rating",20%
same,plant injury at 31 g/ha,"[15]; Postemergence, 31 g ai/ha, visual injury after approx. 10 d, 0 to 100 scale, 0 no effect, 100 complete control, read-out: Plant response rating, Wheat",0%
same,pest or weed control at 250 g/ha,[16],75%
same,pest or weed control at 250 g/ha,[17],100%
same,pest or weed control at 250 g/ha,rice (Oryra sativa),20%
same,pest or weed control at 250 g/ha,[18],0%
